Results as given in paper PMC7550284, “The functional cooperation of 5-HT1A and mGlu4R in HEK-293 cell line” (Pharmacological Reports, 2020).

Experiments:
[1] = target: T1, hmGlu4 receptor homodimer (Homo sapiens, UniProt Q14833); assay: HTRF-FRET receptor interaction assay, mGlu4-SNAP homodimers (Snap-Tb/Snap-Green); type: cell-based; details: in presence of L-glutamate; VU0155041 10 μM, LY341495 100 µM
T1 construct: expressed in transfected cells
Method: The intermolecular interaction was presented as a ratio (FRET/Snap-Tb) x10e^4.
A homogenous time-resolved FRET assay was used to analyze the interaction between receptors labeled with Snap-Tb and Snap-green. For each experiment, a group named “mix cells” (1:1) was added, which corresponded to a mixture of cells separately labeled with one substrate depending on the experimental procedure and mixed immediately before FRET measurement.

5-HT1A receptor [2] = target: T2, 5-HT1A receptor (Homo sapiens, UniProt P08908); assay: Forskolin-induced cAMP accumulation in T-REx 293 cells expressing both 5-HT1A-HALO and mGlu4R-SNAP, 5-HT1A agonist response; type: cell-based; details: +Tet
T2 construct: expressed in transfected cells
T2 sequence (P08908 1-422): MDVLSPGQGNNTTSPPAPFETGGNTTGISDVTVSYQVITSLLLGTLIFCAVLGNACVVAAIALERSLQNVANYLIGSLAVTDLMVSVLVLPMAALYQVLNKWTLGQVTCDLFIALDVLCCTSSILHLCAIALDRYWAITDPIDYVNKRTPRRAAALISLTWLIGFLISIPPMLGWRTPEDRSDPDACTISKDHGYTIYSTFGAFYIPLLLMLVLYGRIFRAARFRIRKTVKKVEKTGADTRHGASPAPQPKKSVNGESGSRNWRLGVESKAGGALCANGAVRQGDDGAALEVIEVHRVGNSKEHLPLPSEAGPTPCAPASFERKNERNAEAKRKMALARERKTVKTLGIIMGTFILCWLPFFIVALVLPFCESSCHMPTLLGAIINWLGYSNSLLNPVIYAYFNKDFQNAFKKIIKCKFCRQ
Method: (§1) The cell line was maintained in DMEM medium supplemented with 10% FBS (tetracycline free), 2 mM Glutamax I (Lonza,), 100 µg/mL Zeocin and 10 µg/mL blasticidin (Invitrogen). T-REx 293 cells were treated with a mixture of plasmids (0.1 µg pTet-SNAP-GRM4 and 0.9 µg pOG44) and GeneJuice transfection reagent according to the manufacturer’s instructions (Novagen). After 48 h, selection for the stably integrated plasmid with 100 µg/mL hygromycin B (Invitrogen) began. In parallel experiments, the HALO-5-HT1A plasmid was introduced into T-REx 293 cells or cells with the inducible expression of SNAP-GRM4 to generate a cell line that expressed both receptors. In the double expression system (as well as in other experiments), 5-HT1A was stably expressed, and mGlu4R expression was induced by tetracycline treatment (+ Tet; 0.75 µg/mL) (Fig. S3). One additional cell line was generated by cloning the 5-HT1A insert (BamHI/XhoI) into the pSNAPf vector ([…]).
(§2) Each experiment was performed three times (n = 3), and each data point was in triplicate. The curves for the data shown were fitted to a three-parameter logistic equation, allowing for the determination of IC50 values and Emax. For comparison of IC50 between the curves, t test was applied. The ONE way ANOVA and Tukey’s post hoc test were used for in vitro receptor interaction assays statistics.

mGlu4R [3] = target: T3, mGlu4R (Homo sapiens, UniProt Q14833); assay: Forskolin-induced cAMP accumulation in T-REx 293 cells expressing both 5-HT1A-HALO and mGlu4R-SNAP, L-glutamate response; type: cell-based; details: SSZ 100 μM; +Tet
T3 construct: expressed in transfected cells
Method: as §1, §2

5-HT1A receptor [4] = target: T2, 5-HT1A receptor; assay: Forskolin-induced cAMP accumulation (HTRF) in T-REx-293-h5-HT1A-SNAP cells; type: cell-based; details: cAMP assay, Fig. 1b
Method: as §1, §2

mGlu4R [5] = assay: Forskolin-induced cAMP accumulation in T-REx 293 cells expressing both 5-HT1A-HALO and mGlu4R-SNAP, L-glutamate response; type: cell-based, human; details: without tetracycline induction (−Tet); curve parameters impossible to determine
Method: as §1, §2

T3 sequence (Q14833 33-912): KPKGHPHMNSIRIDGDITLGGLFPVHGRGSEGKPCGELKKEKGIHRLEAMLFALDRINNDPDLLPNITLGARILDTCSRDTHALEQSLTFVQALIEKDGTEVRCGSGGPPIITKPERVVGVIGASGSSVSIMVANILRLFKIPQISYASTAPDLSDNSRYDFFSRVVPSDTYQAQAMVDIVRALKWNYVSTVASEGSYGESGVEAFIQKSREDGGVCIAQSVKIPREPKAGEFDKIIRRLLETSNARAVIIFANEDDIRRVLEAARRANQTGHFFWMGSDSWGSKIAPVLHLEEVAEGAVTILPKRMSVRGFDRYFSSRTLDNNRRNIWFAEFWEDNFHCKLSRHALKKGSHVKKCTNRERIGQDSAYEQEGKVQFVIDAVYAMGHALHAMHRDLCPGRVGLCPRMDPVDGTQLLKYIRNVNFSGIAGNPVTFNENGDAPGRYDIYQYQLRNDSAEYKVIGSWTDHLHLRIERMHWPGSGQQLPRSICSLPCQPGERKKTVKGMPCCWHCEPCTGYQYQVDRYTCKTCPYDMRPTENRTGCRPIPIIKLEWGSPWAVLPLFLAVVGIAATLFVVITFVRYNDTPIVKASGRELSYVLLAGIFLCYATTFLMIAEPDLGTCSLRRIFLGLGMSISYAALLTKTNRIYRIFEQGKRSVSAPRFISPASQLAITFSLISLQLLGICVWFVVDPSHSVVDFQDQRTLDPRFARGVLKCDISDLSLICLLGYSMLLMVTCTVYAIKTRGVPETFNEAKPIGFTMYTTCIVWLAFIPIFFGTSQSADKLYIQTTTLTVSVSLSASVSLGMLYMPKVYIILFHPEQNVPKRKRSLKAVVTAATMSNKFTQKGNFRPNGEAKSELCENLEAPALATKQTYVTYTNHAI
T1 sequence (Q14833 33-912): as above

O=C(Nc1cc(Cl)cc(Cl)c1)[C@H]1CCCC[C@H]1C(=O)O [VU0155041]
Effect on FRET signal / interaction between mGluR4 monomers [1]: enhanced interaction

O=C(O)c1cc(/N=N/c2ccc(S(=O)(=O)Nc3ccccn3)cc2)ccc1O [Sulfasalazine, sulfasalazine]
Effect of sulfasalazine treatment on 5-HT1A activity in presence of mGlu4 receptors (5-HT1A receptor [2]; SSZ 100 μM, versus cells without SSZ): significantly enhanced
Effect of sulfasalazine treatment on the dose–response curve of glutamate (mGlu4R [3]): shifted the dose–response curve of glutamate to the left

COc1ccccc1N1CCN(CC(C(=O)NC(C)(C)C)c2ccccc2)CC1 (stereo not drawn) [WAY100135]
Effect of antagonist on the agonist (R)-(+)-8-OH DPAT Emax (5-HT1A receptor [4]): totally abolished

CCCN(CCC)[C@@H]1CCc2cccc(O)c2C1 [(R)-(+)-8-OH DPAT, (R)-(+)-8-hydroxy-DPAT]
Effect on forskolin-stimulated cAMP accumulation after induction of mGlu4 receptor expression (5-HT1A receptor [2]): abolished

N[C@@H](CCC(=O)O)C(=O)O [L-glutamate]
Effect on forskolin-induced cAMP accumulation without induction of mGlu4 receptor expression (mGlu4R [5]): not effective
